According to patent US7304166B2, “Benzenesulfonate salt of 4-fluoro-2-cyanopyrrolidine derivatives” (Taisho Pharmaceutical Co., Ltd., priority 2002, dated 2007):

Tests used:
Format in all cases: physicochemical
[1] = Solid-state stability testing (remaining percentage by HPLC)
Experimental: Each analyte (about 1 mg) was precisely metered and stored in a screw-capped test tube covered with aluminum foil for light shielding, which was sealed under heated conditions (70° C.) or opened under heated and humidified conditions (40° C., 75% RH). The remaining percentage of each drug was measured in the following manner. After completion of a given period of storage, the test tubes were supplemented with 10 ml HPLC mobile phase to dissolve the analytes and then provided for quantification by HPLC. The results were compared in area with the initial values obtained before heating or before heating and humidification to calculate the remaining percentage of drugs.
Column temperature: 40° C.
Detection: UV absorptiometer (Detection wavelength: 210 nm)
Mobile phase: water/acetonitrile/phosphoric acid/SDS (700:300:1:2)

[2] = Testing for weight change under humidified conditions; conditions: room temperature; for State / Change in weight: desiccator containing water
Experimental: Each analyte (10.0 mg) was metered into a microtube (diameter: 8 mm, length: 50 mm) and allowed to stand in a desiccator containing water in such a manner as to keep the tube from coming into contact with water. The desiccator was allowed to stand at room temperature. The analytes were monitored for their state and measured for their weight with time. Changes in weight were expressed as percentages (%).

[3] = Compatibility testing with additives (remaining percentage by HPLC); conditions: 65° C. for 1 week, sealed, methanesulfonate salt
Experimental: This testing was performed according to the report of Serajuddin A. T. M. et al. (J. Pharm. Sci., 88, 696-704, 1999). A drug substance and additives were metered into a screw-capped test tube according to Recipe A (10 mg drug substance, 68 mg crystalline cellulose, 2 mg magnesium stearate) or Recipe B (10 mg drug substance, 68 mg lactose, 2 mg hydrogenated oil) and mixed in a rotary mixer (MIX-ROTAR VMR-5, Iuchi Seieido Co., Ltd., Japan) for 1 hour. The mixture according to Recipe A or B was further stirred using a vortex mixer (TOUCH MIXER MT-31, Yamato Scientific Co., Ltd., Japan), provided that Recipe A was supplemented with no additional ingredient, while Recipe B was supplemented with 16 μl purified water. The mixtures were stored at 65° C. for 1 week under sealed and completely light-shielded conditions and then measured for drug content after storage to calculate the remaining percentage of each drug in each recipe.
The drug content was determined in the following manner. […] The resulting solutions were each filtered through a 0.45 μm membrane filter, 5 ml of which was sampled and filled up with 50% methanol in a 10 ml measuring flask for use as a sample solution and then quantified by HPLC. […]

[4] = 40° C., 75% RH for 1 month, opened, light-shielded
[5] = 70° C. for 3 days, sealed, light-shielded
[6] = humidified conditions, over the test period

Compound	Remaining percentage of drug [1, 4] [%]	Remaining percentage of drug [1, 5] [%]	Remaining percentage of drug ([1]; under either condition (70° C. 3 days; 40° C., 75% RH 1 month)) [%]	State ([2]; Day 3)	Change in weight under humidified conditions [2, 6]	State under humidified conditions [2, 6]	Change in weight ([2]; Day 1)	State ([2]; Day 1)	Remaining percentage of drug ([3]; Recipe A (crystalline cellulose, magnesium stearate)) [%]	Remaining percentage of drug ([3]; Recipe B (lactose, hydrogenated oil, purified water)) [%]	Change in weight ([2]; Day 2)	State ([2]; Day 2)
CC(C)(CO)NCC(=O)N1C[C@@H](F)C[C@H]1C#N.O=S(=O)(O)c1ccccc1 [Example 1, (2S,4S)-2-cyano-4-fluoro-1-[(2-hydroxy-1,1-dimethyl)ethylamino]acetylpyrrolidine benzenesulfonate salt]	99.6	99.3	≥ 99	No change	no change in weight	no deliquescence	–	–	–	–	–	–
CC(C)(CO)NCC(=O)N1C[C@@H](F)C[C@H]1C#N.Cl [Reference Example 1, (2S,4S)-2-cyano-4-fluoro-1-[(2-hydroxy-1,1-dimethyl)ethylamino]acetylpyrrolidine hydrochloride salt]	92.6	97.0	–	–	–	deliquesced	+44%	Deliquescence	–	–	–	–
CC(C)(CO)NCC(=O)N1C[C@@H](F)C[C@H]1C#N.CS(=O)(=O)O [Reference Example 2, (2S,4S)-2-cyano-4-fluoro-1-[(2-hydroxy-1,1-dimethyl)ethylamino]acetylpyrrolidine methanesulfonate salt]	95.9	95.5	–	–	–	deliquesced	+28%	–	91.6	74.5	+71%	Deliquescence
